Measured values reported in article PMC10415494, “Ga(III) pyridinecarboxylate complexes: potential analogues of the second generation of therapeutic Ga(III) complexes?” (Journal of Biological Inorganic Chemistry, 2023).

What was measured:
[1] = system: Candida parapsilosis (C. parapsilosis) ATCC 22019; assay: Antimicrobial activity, macrodilution method (yeast, growth by A590); format: cell-based; details: Yeast; Sabouraud's growth medium, 37 °C; read-out: IC50 C. parapsilosis
Protocol: (§1) The antimicrobial activities of gallium(III) complexes GaPic, GaDpic, GaChel, GaCldpic, free ligands (HPic, H2Dpic, H2Chel, H2Cldpic) and positive controls (cefoxitin (C), ampicillin (A) and piperacillin (P)) were evaluated by macrodilution method using G^+ bacteria (Firmicutes) Staphylococcus aureus (S. aureus) CCM 3953 (Czech Collection of Microorganisms), G^− bacteria (γ-proteobacteria) Escherichia coli (E. coli) CCM 3988, Pseudomonas aeruginosa (P. aeruginosa) CCM 1959 (Czech Collection of Microorganisms) and the yeast Candida parapsilosis (C. parapsilosis) ATCC 22019 (American type culture collection). Cultures of bacteria (in Mueller–Hinton broth, MHB) and yeasts (in Sabouraud’s growth medium, SB) were incubated under shaking (250 rpm) at 37 °C. The growth of bacteria and yeasts was evaluated by measuring the absorbance of the growing cultures (A590) until the cultures reached the stationary growth phase. The effects of gallium(III) complexes on the growth of filamentous fungi Rhizopus oryzae (R. oryzae) CCM F-8284, Alternaria alternata (A. alternata) CCM F-128 and Microsporum gypseum (M. gypseum) CCM F-8342 (Czech Collection of Microorganisms) were observed by macrodilution method on solidified potato-dextrose growth medium (PDA). During culturing, the diameters of growing fungal colonies were measured at regular intervals. Briefly, the antimicrobial activity (bacteria and yeasts) gallium(III) complexes/ ligands were added to the microbial culture at the beginning of the cultivation-to the lag phase. Pure gallium(III) complexes/ligands were dissolved in DMSO. The final concentration of DMSO never exceeded 1.0 vol. % neither in control nor treated samples. Concentration of gallium(III) complexes used in experimental work for evaluation of antimicrobial activity was used in the range of 0.05–2 mM, for the free ligands in the range of 0.5–2.0 mM in all experiments. […] The IC50 values were evaluated from toxicity curves. All the obtained results of antimicrobial activity were compared to the activity of Ga(NO3)3.

[2] = system: HeLa (human cervical adenocarcinoma); assay: MTS antiproliferative assay
Protocol: (§2) Cell culture the cell lines A2058 (human metastatic melanoma), BLM (human metastatic melanoma), HCT116 (human colorectal carcinoma), HeLa (human cervical adenocarcinoma), Jurkat (human leukaemic T cell lymphoma). […] Cells were maintained in standard conditions with an atmosphere containing 5% CO2 at 37 °C.
(§3) The antiproliferative activity of Ga(III) complexes GaPic, GaDpic, GaChel, GaCldpic, free ligands (HPic, H2Dpic, H2Chel, H2Cldpic) and cisplatin (cisPt) were evaluated by colorimetric microculture MTS (3-(4,5-dimethylthiazol-2-yl)-5-(3-carboxymethoxyphenyl)-2-(4-sulfophenyl)-2H tetrazolium) assay (Promega, Madison, WI, USA). Cancer and non-cancer cells were seeded at density 5 × 10^3 cells/well in 96-well polystyrene microplates. Twenty-four hours after cell seeding, different concentrations (1.0—100.0 µM) of the compounds were tested. After 72 h of incubation, 10 µL of MTS was added to each well. After an additional 2 h, cell proliferation was evaluated by measuring of absorbance at wavelength 490 nm using the automated Cytation™ 3 Cell Imaging Multi-Mode Reader (Biotek, Winooski, VT, USA). The absorbance of control wells was taken as 100%, and the results were expressed as a percent of untreated control. IC50 values were calculated from MTS analyses.

[3] = system: MDA-MB-231 (human mammary gland adenocarcinoma); assay: MTS antiproliferative assay
Protocol: as §2, §3

[4] = system: A2058 (human metastatic melanoma); assay: MTS antiproliferative assay
Protocol: as §2, §3

[5] = system: HCT116 (human colorectal carcinoma); assay: MTS antiproliferative assay
Protocol: as §2, §3

[6] = system: PaTu 8902 (human pancreatic adenocarcinoma); assay: MTS antiproliferative assay
Protocol: as §2, §3

[7] = system: Jurkat (human leukaemic T cell lymphoma); assay: MTS antiproliferative assay
Protocol: as §2, §3

[8] = system: Staphylococcus aureus (S. aureus) CCM 3953; assay: Antimicrobial activity, macrodilution method (growth by A590); format: cell-based; details: Bacteria; MHB, 37 °C; DMSO max 1.0 vol. %; read-out: IC50 S. aureus
Protocol: as §1

[9] = system: Pseudomonas aeruginosa (P. aeruginosa) CCM 1959; assay: as above; format: cell-based
Protocol: as §1

[10] = system: Escherichia coli (E. coli) CCM 3988; assay: as above; format: cell-based
Protocol: as §1

[11] = system: human dermal fibroblasts (HDF); assay: in vitro
Protocol: as §2, §3

[12] = system: Alternaria alternata (A. alternata) CCM F-128; assay: Growth of filamentous fungi, macrodilution method on solidified PDA (colony diameter); format: cell-based; details: Filamentous fungi; solidified potato-dextrose growth medium; read-out: IC50 A. alternata
Protocol: as §1

[13] = system: Microsporum gypseum (M. gypseum) CCM F-8342; assay: as above; format: cell-based; details: Filamentous fungi; solidified potato-dextrose growth medium; read-out: IC50 M. gypseum
Protocol: as §1

[14] = system: Rhizopus oryzae (R. oryzae) CCM F-8284; assay: as above; format: cell-based; details: solidified potato-dextrose growth medium; read-out: IC50 R. oryzae
Protocol: as §1

Solubility (qualitative) = format: physicochemical
[15] = Complex stability in biological testing medium by time-dependent 1H NMR; format: physicochemical; details: 300 K, over 96 h
Protocol: Nuclear magnetic resonance (NMR) data were collected on a Varian VNMRS 600 spectrometer operating at 599.87 MHz for ^1H. The concentration of all samples was approximately 3 mg/0.6 mL of 1% DMSO-d6/D2O. For comparison, the spectra of pure acids were also measured, while the pH of the solution of acids was adjusted to the same value as the solution of the complexes. The chemical shifts were referenced to the TSP (3-(trimethylsilyl)propionic-2,2,3,3-d4 acid sodium salt) peak (^1H NMR 0.00 ppm). The NMR data were recorded at 300 K, with chemical shifts δ reported in parts per million and coupling constants J in Hertz. All data were analysed using MestReNova 12.0.0 (2017) software. The stability in 1% DMSO-d6/D2O was determined for all samples. […]

[16] = cited from earlier work
[17] = parameters: method as in doi:10.1002/hlca.19600430611; details: cited from earlier work

O.O.O=C([O-])c1cc(Cl)cc(C(=O)[O-])n1.O=C([O-])c1cc(Cl)cc(C(=O)[O-])n1.[Ga+3].[Ga+3].[OH-].[OH-] [GaCldpic, [Ga(Cldpic)(H2O)(OH)]2]
IC50 [1]: > 2000 µM | IC50 [2]: 447 ± 134 µM | IC50 [3]: 271 ± 68.3 µM | IC50 [4]: 294 ± 57.5 µM | IC50 [5]: 404 ± 47.7 µM | IC50 [6]: 437 ± 22.6 µM | IC50 [7]: 405 ± 87 µM | IC50 [8]: > 2000 µM | IC50 ([9]; Bacteria, MHB, 37 °C, DMSO max 1.0 vol. %, read-out: IC50 P. aeruginosa): 50 µM | MIC100 (MIC) P. aeruginosa ([9]; growth fully inhibited (100%)): 500 µM | IC50 ([10]; Bacteria, MHB, 37 °C, DMSO max 1.0 vol. %, read-out: IC50 E. coli): > 2000 µM | partial inhibition of E. coli growth ([10]; concentration not given): 30% | IC50 [11]: 447 ± 27.6 µM | IC50 [12]: > 2000 µM | IC50 [13]: > 2000 µM | IC50 [14]: > 2000 µM | solubility in ethanol (Solubility (qualitative)): slightly soluble | stability in 1% DMSO-d6/D2O solution [15]: stable

O=C(O)c1cccnc1 [nicotinic, nicotinic acid]
dissociation constant pK2 [16]: 4.66

Fe(Dpic)2
stability constant logβ021 [17]: 17.13
